In US20050090531A1, “MAG expression promoters” (priority 1999, published 2005):

Assays:
Format in all cases: cell-based, rat
[1] = system: myelin-related glycoprotein (MAG); assay: MAG expression in DRG nerve cell/Schwann cell co-culture by immunoblotting, concentration dependence, Experimental Example 2; conditions: tested at 1, 3, 10 or 30 μmol/l, added every 2 days for 2 weeks; immunoblot, semi-quantitative
Experimental: According to the method described in Experimental Example 1, DRG nerve cells and Schwann cells were co-cultured. A DMSO solution containing the compound of the present invention (Y-128, 1, 3, 10 or 30 μmol/l) or ascorbic acid (50 μg/ml) as a positive control compound was added to the medium every 2 days for 2 weeks. As a negative control compound, the vehicle DMSO was added in the same manner. After 2 weeks from the start of the addition of the compound, the medium was removed and a sample buffer containing sodium dodecyl sulfate (SDS) was added to the well for solubilization of the cells.
A part thereof was separated by polyacrylamide gel electrophoresis and the migrated protein was transferred to a PVDF membrane. By immunoblotting and chemiluminescence, the objective protein was detected on an X ray film. A band detected at about 100 kDa migration was identified as a signal of myelin-related glycoprotein (MAG). The X ray film was scanned and the image was imported to a computer, and the expression of MAG was semi-quantitatively determined using an analysis software, ImageQuaNT (Molecular Dynamics). […] From the above-mentioned Experimental Example, it was clarified that the compound of the present invention (Y-128) increased the expression of MAG from the concentration of 3 μmol/l.

[2] = system: myelin-related glycoprotein (MAG); assay: Time-course of MAG expression in DRG nerve cell/Schwann cell co-culture, Experimental Example 3; conditions: 10 μmol/ml, added every 2 days
Experimental: According to the method described in Experimental Example 1, DRG nerve cells and Schwann cells were co- cultured. A DMSO solution containing the compound of the present invention (Y-128, […]) or ascorbic acid (50 μg/ml) as a positive control compound was added to the medium every 2 days. The medium DMSO was added in the same manner as was the negative control compound. In the same manner as in Experimental Example 2, MAG was quantitatively determined before addition of the compounds and 3, 6, 9, 12, 15 and 18 days after addition.

[3] = system: myelination of axon in co-cultured DRG nerve cells and Schwann cells; assay: Myelination of axon in co-culture of DRG nerve cells and Schwann cells (Sudan Black B myelin staining), Experimental Example 1; conditions: 2 weeks of co-culture
Experimental: The preparation of nerve cell followed the method of Seung U. Kim (Experimental Protocols for Brain and Nerve—From cultured cell to functional analysis, ed. Katsuhiko Mikoshiba, Takao Shimizu, Yodosha). That is, an embryo was taken out from a 18-day pregnant female rat (Crj: CD(SD)IGS), from which dorsal spinal nerve root ganglia (hereinafter to be referred to as DRG) was removed under a stereoscopic microscope. DRG was treated with 0.25% trypsin and DNase I at 37° C. to disperse the cells. Adherent cells other than nerve cells were removed and the cells (5000 cells) were plated on a polylysine-coated plate. The cells were cultured in DMEM containing 10% FCS supplemented with the nerve growth factor (hereinafter to be referred to as NGF, 50 ng/ml) in a CO2 incubator. After 3 days of culture, the medium was changed to one containing Ara-C (1 μmol/l) to remove proliferative cells other than the nerve cells.
The preparation of Schwann cells followed the method of Ichiro Matsuoka (Springer Neuroscience Lab Manual 1, ed. Hiroshi Hatanaka, Springer-Verlag Tokyo). That is, the sciatic nerve of a neonatal rat (1 to 3 days postnatal, (Crj: CD(SD)IGS)) was removed under a stereoscopic microscope and adventitia was removed. By treating with trypsin/collagenase and DNase I in CMF-HBSS, the cells were dispersed. Using a culture flask, the cells were cultured in DMEM containing 10% FCS in a CO2 incubator. After culturing in a medium containing Ara-C, the cells were recovered and the cell suspension was treated successively with anti-Thy 1.1 and rabbit complement to remove cells other than the Schwann cells. Using a collagen-coated culture flask, the cells were cultured in DMEM containing 10% FCS in a CO2 incubator.
After 1 week from the start of the culture of DRG nerve cells, Schwann cells (20,000 cells) were plated on a plate in which DRG nerve cells had been cultured. he medium for co-culture was DMEM containing 2 μmol/l f forskolin, 50 ng/ml of NGF and 10% FCS. […]

Q: For `Cc1ccc(-n2ccnc2)cc1[C@H](O)c1c(C)cc(C(=O)O)cc1C` [Y-128, (S)-4-[α-hydroxy-5-(1-imidazolyl)-2-methylbenzyl]-3,5-dimethylbenzoic acid], which “concentration from which the expression of MAG was increased” value [1] is on record?
A: ≥ 3 µmol/L

Q: What about the “time after addition at which the expression of MAG disappeared” value [2] of the same compound?
A: 18 days

Q: And the “time-course changes of MAG expression compared with positive control ascorbic acid (50 μg/ml)” value ([2]; up to 18 days)?
A: the same as that by the positive control compound, ascorbic acid

Q: And the “time after addition at which expression of MAG was increased maximally” value ([2]; measured 3, 6, 9, 12, 15 and 18 days after addition)?
A: 6 days and 12 days

Q: And the “effect on myelination of axon (conclusion)” value ([3]; 3 μmol/l)?
A: promoted myelination of axon

Q: What about the “wells in which axon was stained as deep as ascorbic acid addition group” value ([3]; 3 μmol/l, added every 2 or 3 days, Sudan Black B stain) of the same compound?
A: 5 wells out of 12 wells

Q: For `O=C1O[C@H]([C@@H](O)CO)C(O)=C1O` [ascorbic acid, reference compound], which “staining of axon (myelin stain)” value ([3]; 50 μg/ml, added every 2 or 3 days, 12 wells, Sudan Black B stain) is on record?
A: axon was stained deep in every well
